The supplement of paper PMC11061612

Experiments:
Experiment in all cases: Bliss excess, mean over the matrix (fraction); higher = more synergy
[1] = system: G-401 (Other Solid Carcinomas)
How it was run: (§1)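 Cell lines grown in DMEM/F12 or RPMI with 10% FBS were plated in 1536-well plates and held 24 hours at 37°C, 5% CO2 before 72 hours of exposure to two-drug dose matrices, with DMSO typically at 0.2%. CellTiter-Glo 2.0 luminescence gave viability, which was converted to inhibition. Vehicle wells were set to 0 and blank wells to 1. Combination Emax is the second-highest inhibition in the matrix, and Bliss excess is the observed combination effect minus the expected EA + EB − EA·EB, where EA and EB are the single-agent effects.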

[2] = system: EW-1 (Ewing's Sarcoma)
How it was run: as §1

[3] = system: MOLT-4 (T-Lymphoblastic Leukemia)
How it was run: as §1

[4] = system: NCI-H1838 (Lung Adenocarcinoma)
How it was run: as §1

[5] = system: SNU-387 (Hepatocellular Carcinoma)
How it was run: as §1

[6] = system: A4-Fuk (B-Lymphoblastic Leukemia)
How it was run: as §1

[7] = system: ML-2 (Acute Myeloid Leukemia)
How it was run: as §1

[8] = system: Ca-Ski (Cervical Carcinoma)
How it was run: as §1

[9] = system: NCI-H1993 (Lung Adenocarcinoma)
How it was run: as §1

[10] = system: SW872 (Other Solid Carcinomas)
How it was run: as §1

[11] = system: HCC1937 (Breast Carcinoma)
How it was run: as §1

[12] = system: NCI-H650 (Lung Adenocarcinoma)
How it was run: as §1

[13] = system: OE33 (Esophageal Adenocarcinoma)
How it was run: as §1

[14] = system: COLO-679 (Melanoma)
How it was run: as §1

[15] = system: MV-4-11 (Acute Myeloid Leukemia)
How it was run: as §1

[16] = system: SK-N-AS (Neuroblastoma)
How it was run: as §1

[17] = system: MDA-MB-453 (Breast Carcinoma)
How it was run: as §1

[18] = system: HAL-01 (B-Lymphoblastic Leukemia)
How it was run: as §1

[19] = system: KOPN-8 (B-Lymphoblastic Leukemia)
How it was run: as §1

[20] = system: Hey (Ovarian Carcinoma)
How it was run: as §1

Row | Structure (SMILES) | Bliss excess [1] | Bliss excess [2] | Bliss excess [3] | Bliss excess [4] | Bliss excess [5] | Bliss excess [6] | Bliss excess [7] | Bliss excess [8] | Bliss excess [9] | Bliss excess [10] | Bliss excess [11] | Bliss excess [12] | Bliss excess [13] | Bliss excess [14] | Bliss excess [15] | Bliss excess [16] | Bliss excess [17] | Bliss excess [18] | Bliss excess [19] | Bliss excess [20]
1 | COc1nnc2ccc(N3CCC(c4ccc(OCCN5CCN(C)C(=O)[C@H]5C)cc4)CC3)nn12 [AZD5153] + Cn1cnc2c(F)c(Nc3ccc(Br)cc3Cl)c(C(=O)NOCCO)cc21 [Selumetinib] (first compound max 1 µM, 7x7, partner max 10 µM) | -0.0761 | 0.041 | -0.0161 | 0.03 | 0.0012 | -0.0175 | 0.075 | 0.0324 | -0.0228 | 0.0635 | -0.0523 | 0.0339 | 0.0318 | -0.004 | 0.0309 | 0.0307 | -0.0141 | 0.0347 | 0.114 | -0.0092
2 | Cc1c2c(nn1C)CSCc1cc(n(C)n1)CSc1cc(c3ccccc3c1)OCCCc1c(C(=O)O)n(C)c3c-2c(Cl)ccc13 [AZD5991] + C1CN(CCC1(C(=O)N[C@@H](CCO)C2=CC=C(C=C2)Cl)N)C3=NC=NC4=C3C=CN4 [Capivasertib] (first compound max 1 µM, 7x7, partner max 3 µM) | 0.0486 | 0.0232 | 0.0964 | 0.0017 | 0.0124 | -0.0011 | -0.0159 | 0.0269 | 0.0523 | 0.0057 | -0.0108 | -0.0044 | -0.0328 | -0.0179 | -0.0089 | 0.0017 | 0.05 | 0.0298 | -0.0468 | -0.0349
3 | Cc1c2c(nn1C)CSCc1cc(n(C)n1)CSc1cc(c3ccccc3c1)OCCCc1c(C(=O)O)n(C)c3c-2c(Cl)ccc13 [AZD5991] + C=CCn1c(=O)c2cnc(Nc3ccc(N4CCN(C)CC4)cc3)nc2n1-c1cccc(C(C)(C)O)n1 [AZD1775] (first compound max 1 µM, partner max 1 µM) | 0.0023 | 0.01 | -0.0043 | 0.0159 | -0.0632 | 0.0204 | -0.0342 | -0.0012 | 0.0026 | 0.0634 | -0.0157 | 0.0397 | -0.023 | 0.0628 | -0.0407 | -0.066 | -0.0091 | -0.0197 | -0.0397 | -0.0325
4 | Cc1c2c(nn1C)CSCc1cc(n(C)n1)CSc1cc(c3ccccc3c1)OCCCc1c(C(=O)O)n(C)c3c-2c(Cl)ccc13 [AZD5991] + CC1(C)CCC(CN2CCN(c3ccc(C(=O)NS(=O)(=O)c4ccc(NCC5CCOCC5)c([N+](=O)[O-])c4)c(Oc4cnc5[nH]ccc5c4)c3)CC2)=C(c2ccc(Cl)cc2)C1 [Venetoclax] (first compound max 1 µM, 7x7, partner max 1 µM) | 0.0446 | 0.103 | 0.124 | 0.0125 | -0.0426 | -0.03 | 0.16 | 0.0006 | 0.0009 | -0.0443 | -0.0208 | -0.0014 | -0.0077 | -0.0218 | 0.0591 | 0.0857 | 0.0023 | 0.0231 | -0.102 | -0.0236
5 | Cc1c2c(nn1C)CSCc1cc(n(C)n1)CSc1cc(c3ccccc3c1)OCCCc1c(C(=O)O)n(C)c3c-2c(Cl)ccc13 [AZD5991] + CCN(CCO)CCCOc1ccc2c(Nc3cc(CC(=O)Nc4cccc(F)c4)[nH]n3)ncnc2c1 [AZD2811] (first compound max 1 µM, 7x7, partner max 1 µM) | -0.0061 | 0.0979 | -0.0126 | 0.0109 | -0.0333 | 0.0579 | -0.0122 | 0.0869 | -0.0072 | 0.0237 | -0.0028 | 0.0512 | -0.002 | 0.0115 | -0.0046 | 0.0414 | 0.125 | 0.0012 | -0.0289 | 0.0293
6 | Cc1c2c(nn1C)CSCc1cc(n(C)n1)CSc1cc(c3ccccc3c1)OCCCc1c(C(=O)O)n(C)c3c-2c(Cl)ccc13 [AZD5991] + CN(C)CCCOc1ccc(-c2ccc3ncc4c(c3c2)n(C2CCOCC2)c(=O)n4C)cn1 [AZD0156] (first compound max 1 µM, 7x7, partner max 1 µM) | 0.0014 | 0.0051 | -0.0058 | 0.043 | -0.0536 | -0.0032 | -0.0149 | 0.0319 | -0.0369 | 0.0164 | 0.0106 | 0.0527 | -0.0227 | 0.0068 | -0.0395 | -0.0303 | -0.0091 | -0.0246 | -0.118 | -0.0039
7 | Cc1c2c(nn1C)CSCc1cc(n(C)n1)CSc1cc(c3ccccc3c1)OCCCc1c(C(=O)O)n(C)c3c-2c(Cl)ccc13 [AZD5991] + C[C@@H]1COCCN1C2=NC(=NC(=C2)C3(CC3)[S@](=N)(=O)C)C4=C5C=CNC5=NC=C4 [AZD6738] (first compound max 1 µM, 7x7, partner max 10 µM) | -0.0341 | 0.0344 | 0.0318 | -0.0021 | 0.0408 | -0.0297 | -0.0999 | 0.0267 | -0.0216 | 0.0323 | 0.061 | 0.0217 | -0.0688 | 0.0047 | 0.0008 | -0.0034 | 0.0525 | -0.0042 | -0.0067 | 0.012
8 | Cc1c2c(nn1C)CSCc1cc(n(C)n1)CSc1cc(c3ccccc3c1)OCCCc1c(C(=O)O)n(C)c3c-2c(Cl)ccc13 [AZD5991] + C[C@@H](Nc1cc(F)cc(F)c1)c1cc(C(=O)N(C)C)cc2c(=O)cc(N3CCOCC3)oc12 [AZD8186] (first compound max 1 µM, 7x7, partner max 3 µM) | -0.0579 | -0.0431 | 0.0193 | 0.0503 | -0.0089 | -0.023 | -0.0218 | 0.0515 | 0.0246 | -0.0214 | -0.0001 | -0.0023 | -0.0003 | 0.0127 | 0.0375 | -0.0122 | -0.0506 | 0.015 | 0.0014 | 0.0023
9 | Cc1c2c(nn1C)CSCc1cc(n(C)n1)CSc1cc(c3ccccc3c1)OCCCc1c(C(=O)O)n(C)c3c-2c(Cl)ccc13 [AZD5991] + Cc1cc2ncnn2cc1Nc1ncc2c(n1)n(C1CCOCC1)c(=O)n2C [AZD7648] (first compound max 1 µM, 7x7, partner max 10 µM) | -0.167 | -0.0108 | -0.0072 | -0.0929 | -0.0318 | 0.0085 | -0.0314 | -0.0079 | -0.0225 | -0.0235 | -0.015 | -0.0101 | -0.0304 | 0.0019 | -0.0151 | -0.0554 | -0.0328 | 0.0227 | -0.0816 | -0.015
10 | C[C@@H]1COCCN1c1cc(C2([S@](C)(=N)=O)CC2)nc(-c2ccnc3[nH]ccc23)n1 [AZD6738] + O=C(c1cc(Cc2n[nH]c(=O)c3ccccc23)ccc1F)N1CCN(C(=O)C2CC2)CC1 [Olaparib] (first compound max 10 µM, 7x7, partner max 10 µM) | 0.0454 | 0.0174 | 0.0556 | -0.138 | -0.0225 | -0.0081 | -0.0667 | 0.0414 | 0.033 | 0.0206 | -0.0665 | -0.0227 | -0.0384 | -0.0163 | -0.0566 | 0.0223 | -0.0764 | 0.003 | -0.0358 | 0.0379
11 | NC1(C(=O)N[C@@H](CCO)c2ccc(Cl)cc2)CCN(c2ncnc3[nH]ccc23)CC1 [Capivasertib] + CC(=O)c1c(C)c2cnc(Nc3ccc(N4CCNCC4)cn3)nc2n(C2CCCC2)c1=O [Palbociclib] (first compound max 10 µM, 7x7, partner max 10 µM) | -0.009 | -0.0124 | -0.0002 | 0.0468 | -0.0515 | -0.0374 | -0.0354 | 0.025 | 0.0642 | 0.0237 | -0.0236 | -0.0413 | -0.0055 | -0.201 | -0.0164 | -0.0033 | 0.0753 | -0.0425 | -0.0079 | 0.0123
12 | NC1(C(=O)N[C@@H](CCO)c2ccc(Cl)cc2)CCN(c2ncnc3[nH]ccc23)CC1 [Capivasertib] + CC(C)n1c(=O)n(C)c2cnc3cc(F)c(-c4ccc(OCCCN5CCCCC5)nc4)cc3c21 [AZD1390] (first compound max 10 µM, 7x7, partner max 0.3 µM) | -0.0346 | -0.0622 | -0.0083 | -0.123 | -0.101 | -0.0472 | -0.0296 | -0.0436 | -0.0311 | -0.0562 | -0.0666 | -0.0899 | -0.0563 | -0.116 | -0.0393 | -0.0657 | -0.0471 | -0.0354 | -0.0611 | -0.0766
13 | NC1(C(=O)N[C@@H](CCO)c2ccc(Cl)cc2)CCN(c2ncnc3[nH]ccc23)CC1 [Capivasertib] + CCN(CCO)CCCOc1ccc2c(Nc3cc(CC(=O)Nc4cccc(F)c4)[nH]n3)ncnc2c1 [AZD2811] (first compound max 10 µM, 7x7, partner max 1 µM) | -0.0072 | 0.0388 | -0.0189 | -0.0356 | -0.0504 | -0.0161 | -0.0094 | 0.0121 | 0.0065 | -0.0384 | 0.0005 | -0.0281 | -0.0137 | -0.2 | -0.0436 | 0.0008 | 0.002 | -0.0779 | -0.0632 | 0.0375
14 | NC1(C(=O)N[C@@H](CCO)c2ccc(Cl)cc2)CCN(c2ncnc3[nH]ccc23)CC1 [Capivasertib] + COc1nnc2ccc(N3CCC(c4ccc(OCCN5CCN(C)C(=O)[C@H]5C)cc4)CC3)nn12 [AZD5153] (first compound max 10 µM, 7x7, partner max 1 µM) | 0.012 | 0.0867 | 0.0908 | 0.0032 | -0.004 | -0.0465 | -0.0187 | 0.0046 | 0.0372 | -0.0399 | 0.0189 | -0.0108 | 0.0052 | -0.122 | 0.0074 | -0.0159 | -0.0148 | -0.0429 | -0.0463 | 0.0206
